Test [1] concerns H1618 and DMS79 cells. Put plainly: IFN response activity assay: pre-treatment, SVV-GFP challenge, flow cytometry. To be noted: then SVV-GFP 16 h, both cell lines; for GFP+ cells compared to untreated cells: 4 μM HDAC inhibitor pre-treatment 24 h. On the technique in general: In flow cytometry, cells or beads pass a laser one at a time.
Test [2] concerns TEX2 KO H446 cells. Briefly: SVV-Cy5 binding experiment, flow cytometry. Also noted: species or system human. To be noted: SVV-Cy5 30 min at 37° C. How it is done: (§1) SVV was incubated with the amine-reactive Cy5 dye (GE Healthcare) in sodium carbonate buffer (pH 9.3) for 1 h at room temperature (RT). Excess dye was removed by filtration through gel filtration columns (GE Healthcare) in HEPES buffer. Virus aliquots were stored at −80° C. parental, ANTXR1 KO, and TEX2 KO H446 cells were incubated with SVV-Cy5 for 30 min at 37° C. in OptiMEM. The non-permissive SCLC cell line, DMS114, was used as a negative control. […] All compensation and gating were performed with FlowJo analysis software (TreeStar) as described below.

In test [3] the test system is parental H446 cells. Put plainly: SVV-Cy5 binding experiment, flow cytometry. Also noted: species or system human. The conditions noted are these: SVV-Cy5 30 min at 37° C. The method, then: as §1
Test [4] deals with DMS114 cells. Briefly: SVV-Cy5 binding experiment, flow cytometry. Also noted: species or system human. The conditions noted are these: SVV-Cy5 30 min at 37° C.; non-permissive negative control line. The method, then: as §1
For test [5], the system named is ANTXR1 KO H446 cells. Briefly: SVV-Cy5 binding experiment, flow cytometry. Also noted: species or system human. The conditions noted are these: SVV-Cy5 30 min at 37° C. The method, then:
as §1

Test [6] deals with T1, Seneca Valley Virus (SVV) (Seneca Valley Virus, UniProt Q155Z9 674-937; Q155Z9 151-434; Q155Z9 435-673; Q155Z9 80-150).
T1 construct: domain: VP1;domain: VP2;domain: VP3;domain: VP4; also called SVV-001; WT SVV
T1 sequence 1: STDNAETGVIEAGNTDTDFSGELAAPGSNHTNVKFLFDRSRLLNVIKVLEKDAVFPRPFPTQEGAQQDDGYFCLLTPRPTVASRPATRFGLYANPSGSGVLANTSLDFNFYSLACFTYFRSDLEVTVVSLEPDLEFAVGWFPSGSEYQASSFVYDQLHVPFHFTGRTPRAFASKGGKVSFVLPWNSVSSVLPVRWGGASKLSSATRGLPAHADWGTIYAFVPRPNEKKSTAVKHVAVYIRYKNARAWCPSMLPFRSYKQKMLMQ
T1 sequence 2: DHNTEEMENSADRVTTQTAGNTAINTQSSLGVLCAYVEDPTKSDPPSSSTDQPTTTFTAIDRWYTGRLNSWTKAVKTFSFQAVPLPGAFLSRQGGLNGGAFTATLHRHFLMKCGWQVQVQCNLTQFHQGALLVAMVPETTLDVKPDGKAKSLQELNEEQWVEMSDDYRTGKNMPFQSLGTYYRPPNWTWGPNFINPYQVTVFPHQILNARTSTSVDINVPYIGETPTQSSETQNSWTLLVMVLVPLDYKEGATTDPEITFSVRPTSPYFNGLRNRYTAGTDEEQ
T1 sequence 3: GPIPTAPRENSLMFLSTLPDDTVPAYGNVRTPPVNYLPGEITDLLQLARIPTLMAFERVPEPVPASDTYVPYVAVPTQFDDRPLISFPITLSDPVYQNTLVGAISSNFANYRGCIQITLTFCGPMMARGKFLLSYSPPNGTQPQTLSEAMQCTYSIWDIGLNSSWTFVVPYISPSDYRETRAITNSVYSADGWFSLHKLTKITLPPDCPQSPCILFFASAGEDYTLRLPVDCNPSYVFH
T1 sequence 4: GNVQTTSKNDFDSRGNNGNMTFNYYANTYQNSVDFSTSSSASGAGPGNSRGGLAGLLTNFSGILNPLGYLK
Briefly: co-immunoprecipitation on Protein G Dynabeads, Western blot with SVV rabbit antisera. A general note: A western blot detects proteins with antibodies after separation by electrophoresis.

In test [7] the test system is SVV. Briefly: Co-immunoprecipitation of SVV with Fc chimera proteins, Western blot. The conditions noted are these: Fc protein on Protein G Dynabeads, SVV 2.0×10^10 vp, 2 h at 4° C.
Test [8] deals with SVV-GFP. Briefly: Blocking experiment: SVV-GFP pre-incubated with Fc protein, then added to parental H446 cells. The conditions noted are these: 5 μg/mL Fc protein with SVV-GFP (MOI=5) on ice 1 h, then parental H446 cells overnight.

Turning to `Nc1ccccc1NC(=O)c1ccc(CNC(=O)OCc2cccnc2)cc1` [MS-275], the “GFP+ cells compared to untreated cells” value in test [1] is “significant increase”.

For `O=C(CCCCCCC(=O)Nc1ccccc1)NO` [SAHA, Vorinostat], in test [1], the “GFP+ cells compared to untreated cells” value was “significant increase”.

For the molecule IFNα, the “SVV permissive, or GFP+ cells” value in test [1] (25 Units/mL IFN pre-treatment 24 h) is “decrease”.

As to “SVV-Cy5: WT SVV labeled with the fluorophore Cy5”, the “mean fluorescence (MF)” value in test [2] is listed as 2,233; in test [3] it was 2,373; in test [4], 425; in test [5], 358.

B1: ANTXR2-Fc chimera (Fc fusion)
chain: QEQPSCRRAFDLYFVLDKSGSVANNWIEIYNFVQQLAERFVSPEMRLSFIVFSSQATIILPLTGDRGKISKGLEDLKRVSPVGETYIHEGLKLANEQIQKAGGLKTSSIIIALTDGKLDGLVPSYAEKEAKISRSLGASVYCVGVLDFEQAQLERIADSKEQVFPVKGGFQALKGIINSILAQSCTEILELQPSSVCVGEEFQIVLSGRGFMLGSRNGSVLCTYTVNETYTTSVKPVSVQLNSMLCPAPILNKAGETLDVSVSFNGGKSVISGSLIVTATECSNG
notes: Bought reagent; also called ANTXR2-Fc chimeric protein; ANTXR2-Fc protein; not shown: Fc part of the chimera; the control isotype is an IgG1 Fc
Consider B1, for which the binding result in test [6] is reported as “no binding”.

B2: ANTXR2-Fc (protein)
chain: QEQPSCRRAFDLYFVLDKSGSVANNWIEIYNFVQQLAERFVSPEMRLSFIVFSSQATIILPLTGDRGKISKGLEDLKRVSPVGETYIHEGLKLANEQIQKAGGLKTSSIIIALTDGKLDGLVPSYAEKEAKISRSLGASVYCVGVLDFEQAQLERIADSKEQVFPVKGGFQALKGIINSILAQSCTEILELQPSSVCVGEEFQIVLSGRGFMLGSRNGSVLCTYTVNETYTTSVKPVSVQLNSMLCPAPILNKAGETLDVSVSFNGGKSVISGSLIVTATECSNG
modifications: left off: a dimerising Fc or GST
As to B2, the “SVV viral protein bands co-immunoprecipitated (direct interaction with SVV)” value in test [7] was “absence of an interaction”. The “GFP+ cells (SVV-GFP infection) by fluorescence microscopy” value in test [8] was “high levels of GFP+ cells”.

B3: ANTXR1-Fc (protein)
chain: EDGGPACYGGFDLYFILDKSGSVLHHWNEIYYFVEQLAHKFISPQLRMSFIVFSTRGTTLMKLTEDREQIRQGLEELQKVLPGGDTYMHEGFERASEQIYYENRQGYRTASVIIALTDGELHEDLFFYSEREANRSRDLGAIVYCVGVKDFNETQLARIADSKDHVFPVNDGFQALQGIIHSILKKSCIEILAAEPSTICAGESFQVVVRGNGFRHARNVDRVLCSFKINDSVTLNEKPFSVEDTYLLCPAPILKEVGMKAALQVSMNDGLSFISSSVIITTTHCSDGS
modifications: left off: a dimerising Fc or GST
In the case of B3, in test [7], the “SVV viral protein bands co-immunoprecipitated (direct interaction with SVV)” value is “viral protein bands were observed”. Besides, in test [8], the “GFP+ cells (SVV-GFP infection) by fluorescence microscopy” value was “no detectable GFP+ cells”.

For the origin of these results see patent US12472218B2, “Seneca valley virus (SVV) cellular receptor targeted oncotherapy” (Memorial Sloan-Kettering Cancer Center, priority 2015, dated 2025).
